System: TEAD-dependent transcription
Assay: Inhibitor activity against TEAD-dependent transcription in a cell-based reporter assay (MSTO-211H+12XGTIIC luciferase)
Settings: Homo sapiens; MSTO-211H+12XGTIIC cell line, 24 hours compound incubation, luminescence normalized to cell viability fluorescence; read-out: MSTO-211H GMean IC50 (uM) Cell Assay Reporter Cell Variant: TEAD
Text: Determine Inhibitor Activity Against TEAD-Dependent Transcription in a Cell-Based Reporter Assay
The human mesothelioma cell line MSTO-211H was stably transfected with a pGL4.21 plasmid containing a synthetic promoter with 12 copies of the GTIIC TEAD response element that drives the expression of a luciferase reporter gene^1 using Lipofectamine transfection reagent (Thermno Fisher). Transfected cells were selected using puromycin and single cell clones expressing this construct (referred to as MSTO-211H+12XGTIIC) were generated by limiting dilution. MSTO-211H cells was characterized by genetic alterations in key components of the Hippo pathway^2, resulting in up-regulation of YAP/TEAD-mediated transcription. […] To evaluate TEAD inhibitors, the MSTO-211H+12XGTIIC cell line was seeded in a 96-well plate in 50 μL of culture media at 1×10^4 cells per well and incubated at 37° C. overnight. Serial dilutions of compounds (in total volume of 50 μL of culture media) were added to the cells and incubated at 37° C. for 24 hours. Each plate included cells treated with DMSO as high controls and cells treated with 20 μM of the reference compound K-975 (a known TEAD inhibitor)^3 as low controls. Cell viability was assayed by the addition of 25 μL of CellTiter-Fluor reagent (Promega) followed by a 30-minute incubation at 37° C. and quantification of the fluorescence signal (Ex400/Em505). Subsequently, luciferase expression was assayed by the addition of 25 μL of ONE-Glo reagent (Promega) followed by a 10-minute incubation at room temperature and quantification of the luminescence signal. The luminescence signal was normalized to the fluorescence signal to correct for any loss in cell viability over the 24-hour compound incubation period. The percentage of inhibition of normalized luminescence signal, indicative of compound-mediated inhibition of TEAD-dependent transcription, at individual compound concentrations relative to high and low controls was calculated. The data were analyzed by using nonlinear regression to generate IC50 values for individual compounds.

| SMILES | IC50 |
| --- | --- |
| O=C1c2cc(Oc3ccc(C(F)(F)F)cc3)ccc2CCN1c1ccnc(S(=O)(=O)C(F)(F)F)n1 [O-0044, 7-(4-(trifluoromethyl)phenoxy)-2-(2-((trifluoromethyl)sulfonyl)pyrimidin-4-yl)-3,4-dihydroisoquinolin-1(2H)-one] | 0.001 to 10 µM |
| O=C1c2cc(Oc3ccc(C(F)(F)F)cc3)ccc2CCN1c1ccc2nc(C(F)(F)F)[nH]c2c1 [O-0045, 2-(2-(trifluoromethyl)-1H-benzo[d]imidazol-6-yl)-7-(4-(trifluoromethyl)phenoxy)-3,4-dihydroisoquinolin-1(2H)-one] | 0.001 to 10 µM |
| O=C1c2cc(Oc3ccc(C(F)(F)F)cc3)ccc2CCN1c1ccc2nc(C(F)(F)F)sc2c1 [O-0046, 2-(2-(trifluoromethyl)benzo[d]thiazol-6-yl)-7-(4-(trifluoromethyl)phenoxy)-3,4-dihydroisoquinolin-1(2H)-one] | 0.001 to 10 µM |
| C=CC(=O)Nc1cncc(N2CCc3ccc(Oc4ccc(C(F)(F)F)cc4)cc3C2=O)c1 [O-0108, N-(5-(1-oxo-7-(4-(trifluoromethyl)phenoxy)-3,4-dihydroisoquinolin-2(1H)-yl)pyridin-3-yl)acrylamide] | 0.001 to 10 µM |
| Nc1cncc(N2CCc3ccc(Oc4ccc(C(F)(F)F)cc4)cc3C2=O)c1 [O-0110, 2-(5-aminopyridin-3-yl)-7-(4-(trifluoromethyl)phenoxy)-3,4-dihydroisoquinolin-1(2H)-one] | 0.001 to 10 µM |
| Nc1cccc(N2CCc3ccc(Oc4ccc(C(F)(F)F)cc4)cc3C2=O)n1 [O-0111, 2-(6-aminopyridin-2-yl)-7-(4-(trifluoromethyl)phenoxy)-3,4-dihydroisoquinolin-1(2H)-one] | 0.001 to 10 µM |
| O=C1c2cccc(Oc3ccc(C(F)(F)F)cc3)c2CCN1c1ccnc([S+]([O-])C(F)(F)F)n1 (stereo not shown) [O-0112, 5-(4-(trifluoromethyl)phenoxy)-2-(2-((trifluoromethyl)sulfinyl)pyrimidin-4-yl)-3,4-dihydroisoquinolin-1(2H)-one] | 0.001 to 10 µM |
